Data reported in article PMC3904085 (Frontiers in Neuroscience, 2014).
Entries after “also recorded” stand apart in the source; their conditions may differ.

Experiments:
[1] = test system: mice lacking OX1 receptors; test: DRL 36-s schedule of reinforcement in OX1 KO mice; type: in vivo, mouse; settings: for Lever Presses Mean / Reinforcers Mean: OX1 KO mice DRL-36-s, raw data; for Lever presses emitted / Reinforcers received: DRL-36-s
Source text: (§1) Rats were acclimated to housing conditions for 4 days, followed by sham dosing once daily for 3 days, prior to the experiment. For DRL experiments, male Sprague–Dawley rats weighing between 300 and 350 g at the beginning of the behavioral experiments (Holtzman, Madison, WI) were housed in pairs. For mouse DRL studies, male C57Bl/6 mice (Taconic Farms, Hudson, NY) or mice lacking either OX1 or OX2 receptors, around 8 weeks of age, were obtained from private breeding colonies at Taconic Farms (Hudson, NY). OX1 and OX2 receptor knockout mice were generated using in vitro fertilization of embryos in C57Bl/6 female mice with sperm harvested from male mice obtained from the University of Texas Southwestern Medical Center (Dallas, TX), and backcrossed for at least 10 generations. Mice and rats were housed in separate colony rooms, which were maintained at 22°C and 60% relative humidity. For rat DRL experiments, water was available for a 20-min period following the daily behavioral session. Based on recommendations from the animal care and use committee, the mouse DRL assay was developed using food deprivation rather than water deprivation. […] All experiments were conducted during the light cycle and in compliance with the Guide for the Care and Use of Laboratory Animals under protocols approved by a local animal care and use committee.
(§2) The levers in these chambers were mounted on one wall with an adjacent food magazine next to the lever in the middle of the wall. A reinforced response caused a clicker apparatus to activate and the pellet feeder to deposit one 45-mg sucrose pellet (BioServ, Frenchtown, NJ) into the food magazine. The house light, which was mounted on the ceiling, was turned on when the session began, remained on throughout the entire session, and was turned off at the end of the session. Each experimental chamber was enclosed in a melamine sound-attenuating cubicle and equipped with a white noise generator to provide masking noise.
(§3) Each mouse was initially trained under a variable time 60-s operant schedule for 5 days, followed by fixed ratio-1 ratio schedule for 5 days. After the mice had acquired lever-pressing behavior, they were trained during daily DRL 6-s sessions for ~1 week, then mice progressed through weekly ascending DRL requirements (12, 18, 24, 30 s) before moving to DRL 36-s sessions. […] Experimental sessions lasted for 45 min and were conducted 5 days/week during light hours.
(§4) Drugs were administered to the animals once or twice weekly with at least 1 week between subsequent drugs to minimize possible carryover effects. Drug treatments were administered on Tuesdays and Fridays. No treatments were administered on other test days. Wednesdays were control days. “Control” behavior was calculated as the pooled mean lever presses or reinforcers received during Wednesday sessions across all Wednesdays for the duration of each study. Performance was normalized to percent of control by dividing total responses (or reinforcers) for each drug or vehicle treatment by the mean number of responses (reinforcers) in the respective pooled control condition, multiplied by 100.
(§5) The data analyses were conducted on the raw response and reinforcement data. All behavioral data are expressed as the mean ± s.e.m. normalized to the control condition.

[2] = test system: mice lacking OX2 receptors; test: DRL 36-s schedule of reinforcement in OX2 KO mice; type: in vivo, mouse; settings: for Lever Presses Mean / Reinforcers Mean: OX2 KO mice DRL-36-s, raw data; for Lever presses emitted / Reinforcers received: mice lacking OX2 receptors, DRL-36-s
Source text: as §1, §2, §3, §4, §5

Sprague–Dawley rats = test: DRL 72-s schedule of reinforcement in rats; type: in vivo, rat; settings: for Lever Presses Mean / Reinforcers Mean: HSD rats DRL-72-s, raw data
Source text: Each chamber was enclosed in a melamine sound-attenuating cubicle. A white noise generator provided masking noise. The interior of each chamber consisted of three levers mounted on one wall with a house light mounted on the opposite wall. The house light was turned on at initiation of each test session and was turned off at the termination of each session. A water access port was situated next to the lever in the middle of the wall, wherein a reinforced response caused a clicker apparatus to sound paired with a dipper (0.02-ml cup) to be lifted from a water trough to an opening in the floor of the access port for 4 s.
Rats were initially trained under an alternative fixed ratio 1 water reinforcement schedule with a fixed 1-min time schedule for automatic reinforcement. Thus, each response was reinforced, with water also provided every minute in the absence of a response. […] Following acquisition of lever-pressing behavior, rats were trained daily on DRL 18-s sessions for ~2 weeks, following which they were advanced to DRL 72-s sessions. Responding on these sessions became stable after ~8 weeks. Experimental test sessions lasted for 1 h and were conducted 5 days/week during light hours.
as §4, §5

C57Bl/6 mice = test: DRL 36-s schedule of reinforcement in wild-type mice; type: in vivo, mouse; settings: for Lever Presses Mean / Reinforcers Mean: WT mice DRL-36-s, raw data
Source text: as §2, §3, §4, §5

[3] = test system: c-Fos protein in rat medial prefrontal cortex; test: Restraint-stress-induced c-Fos activation (ELISA); settings: 3 mg/kg IP 30 min before 20 min restraint, 3 mg/kg
Description: Thirty min later, rats were restrained in a rigid plastic flat-bottom restraint tube (Braintree Scientific, Inc.; Braintree, MA, USA) for 20 min. After the 20 min stress period, rats were moved to a new cage and housed individually. Rats were sacrificed 2 h after stress onset. […] Immediately after sacrifice, brains were removed, the medial prefrontal cortex (mPFC), a brain area implicated in the pathophysiology of depression, was dissected from both hemispheres and frozen in 1.5 ml centrifuge tubes in dry ice, and stored at −80°C for later analysis.
Frozen mPFC tissues were removed from the −80°C freezer and placed on ice. Tissue was homogenized with a dounce homogenizer. The nuclear extract was prepared from the homogenized samples as per manufacturer's instructions using a CHEMICON ®Nuclear Extraction Kit (Millipore; Billerica, MA, USA). Protein concentrations were determined in the nuclear extracts using the Pierce BCA Protein Assay kit (Pierce Biotechnology, Inc., Rockford, IL, USA). Nuclear fractions were then assayed for Fos protein levels using the Pierce c-Fos Transcription Factor Kit (Pierce Biotechnology, Inc., Rockford, IL, USA), according to the manufacturer's instructions. […] Data were analyzed and plotted using GraphPad Prism (GraphPad Software, Inc.; La Jolla, CA, USA).

[4] = mice lacking OX1 receptors, 15 mg/kg
[5] = 10 mg/kg, positive control in the SB334867 experiment
[6] = rats DRL-72-s, 10 mg/kg, normalized to control days
[7] = rats DRL-72-s, 10 mg/kg, positive control in the SB334867 experiment
[8] = mice lacking OX1 receptors, 20 mg/kg

SMILES: CN(C)CCCN1c2ccccc2CCc2ccccc21 [imipramine]
- Lever Presses Mean ([1]; dose 3 mg/kg): 177.63
- Lever Presses Mean ([1]; dose 10 mg/kg): 174.13
- Reinforcers Mean ([1]; dose 10 mg/kg): 24.25
- Lever Presses Mean ([1]; dose 15 mg/kg): 128.50
- Reinforcers Mean ([1]; dose 15 mg/kg): 31.13
- Lever presses emitted [1, 4]: 63 % of control
- Reinforcers received [1, 4]: 206 % of control
- Effect on lever pressing, in words ([1]; mice lacking OX1 receptors, doses lower than 15 mg/kg): did not affect lever pressing
- Lever Presses Mean ([2]; dose 10 mg/kg): 165.25
- Reinforcers Mean ([2]; dose 10 mg/kg): 27.88
- Lever Presses Mean ([2]; dose 15 mg/kg): 116.88
- Reinforcers Mean ([2]; dose 15 mg/kg): 33.00
- Lever presses emitted ([2]; 15 mg/kg): 70 % of control
- Reinforcers received ([2]; 15 mg/kg): 140 % of control
- Lever Presses Mean (Sprague–Dawley rats; 10 mg/kg, positive control in the LSN2424100 experiment): 55.71
- Lever Presses Mean (Sprague–Dawley rats; [5]): 49.00
- Reinforcers Mean (Sprague–Dawley rats; [5]): 18.57
- Lever Presses Mean (Sprague–Dawley rats; dose 1 mg/kg): 77.50
- Reinforcers Mean (Sprague–Dawley rats; dose 1 mg/kg): 9.92
- Lever Presses Mean (Sprague–Dawley rats; dose 3 mg/kg): 68.42
- Reinforcers Mean (Sprague–Dawley rats; dose 3 mg/kg): 15.17
- Lever Presses Mean (Sprague–Dawley rats; dose 10 mg/kg): 46.17
- Reinforcers Mean (Sprague–Dawley rats; dose 10 mg/kg): 20.33
- Reinforcers received (Sprague–Dawley rats; [6]): 210 % of control
- Total lever presses emitted (Sprague–Dawley rats; [6]): 51 % of control
- Lever presses (Sprague–Dawley rats; [7]): 64 % of control
- Reinforcers received (Sprague–Dawley rats; [7]): 160 % of control
- Effect on DRL behavior (lever presses, reinforcers), in words (Sprague–Dawley rats; rats DRL-72-s, doses of 1 and 3 mg/kg): no significant effect on behavior

SMILES: Cc1nc2ccc(NC(=O)Nc3ccnc4cccnc34)cc2o1 [SB334867]
- Lever Presses Mean ([1]; dose 1 mg/kg): 209.75
- Reinforcers Mean ([1]; dose 1 mg/kg): 15.00
- Lever Presses Mean ([1]; dose 3 mg/kg): 169.00
- Reinforcers Mean ([1]; dose 3 mg/kg): 23.88
- Lever Presses Mean ([1]; dose 10 mg/kg): 163.63
- Reinforcers Mean ([1]; dose 10 mg/kg): 22.88
- Lever Presses Mean ([1]; dose 20 mg/kg): 141.88
- Reinforcers Mean ([1]; dose 20 mg/kg): 28.75
- Lever Presses Mean ([1]; dose 40 mg/kg): 68.13
- Reinforcers Mean ([1]; dose 40 mg/kg): 21.38
- Lever presses emitted [1, 8]: 75 % of control
- Reinforcers received [1, 8]: 166 % of control
- Lever presses emitted ([1]; mice lacking OX1 receptors, 40 mg/kg): 35 % of control
- Reinforcers received ([1]; mice lacking OX1 receptors, 40 mg/kg, not significant): 123%
- Lever Presses Mean ([2]; dose 1 mg/kg): 175.50
- Reinforcers Mean ([2]; dose 1 mg/kg): 19.50
- Lever Presses Mean ([2]; dose 3 mg/kg): 155.75
- Reinforcers Mean ([2]; dose 3 mg/kg): 21.50
- Lever Presses Mean ([2]; dose 10 mg/kg): 167.75
- Reinforcers Mean ([2]; dose 10 mg/kg): 22.75
- Lever Presses Mean ([2]; dose 20 mg/kg): 149.50
- Reinforcers Mean ([2]; dose 20 mg/kg): 26.25
- Lever Presses Mean ([2]; dose 40 mg/kg): 27.38
- Reinforcers Mean ([2]; dose 40 mg/kg): 17.50
- Lever presses emitted ([2]; 40 mg/kg): less than 20 % of control
- Reinforcers received ([2]; 40 mg/kg): 75 % of control
- Lever Presses Mean (Sprague–Dawley rats; dose 3 mg/kg): 76.57
- Reinforcers Mean (Sprague–Dawley rats; dose 3 mg/kg): 11.00
- Lever Presses Mean (Sprague–Dawley rats; dose 10 mg/kg): 70.71
- Reinforcers Mean (Sprague–Dawley rats; dose 10 mg/kg): 12.43
- Lever Presses Mean (Sprague–Dawley rats; dose 30 mg/kg IP): 71.86
- Reinforcers Mean (Sprague–Dawley rats; dose 30 mg/kg IP): 11.00
- Change in reinforcers received or total lever presses made, in words (Sprague–Dawley rats; rats DRL-72-s, doses up to 30 mg/kg): did not produce a significant change
- Effect on lever presses emitted or reinforcers received, in words (C57Bl/6 mice; C57Bl/6 mice DRL-36-s, up to 40 mg/kg): did not significantly affect
- Lever Presses Mean (C57Bl/6 mice; dose 3 mg/kg): 162.86
- Reinforcers Mean (C57Bl/6 mice; dose 3 mg/kg): 17.14
- Lever Presses Mean (C57Bl/6 mice; dose 10 mg/kg): 157.57
- Reinforcers Mean (C57Bl/6 mice; dose 10 mg/kg): 16.14
- Lever Presses Mean (C57Bl/6 mice; dose 20 mg/kg): 148.57
- Reinforcers Mean (C57Bl/6 mice; dose 20 mg/kg): 18.43
- Lever Presses Mean (C57Bl/6 mice; dose 40 mg/kg): 87.67
- Reinforcers Mean (C57Bl/6 mice; dose 40 mg/kg): 22.33

SMILES: Cc1nnc2n1-c1ccc(Cl)cc1C(c1ccccc1)=NC2 [alprazolam]
- Effect on restraint stress-induced increase in c-fos expression in prefrontal cortex [3]: attenuated; also recorded: blocked
